The record followed here is paper PMC8456715 (International journal of biological macromolecules, 2020).

The structures appear in SMILES notation.

One experiment addresses T1, AtMAT1 (Arabidopsis thaliana, UniProt P23686).
T1 sequence (P23686 1-393): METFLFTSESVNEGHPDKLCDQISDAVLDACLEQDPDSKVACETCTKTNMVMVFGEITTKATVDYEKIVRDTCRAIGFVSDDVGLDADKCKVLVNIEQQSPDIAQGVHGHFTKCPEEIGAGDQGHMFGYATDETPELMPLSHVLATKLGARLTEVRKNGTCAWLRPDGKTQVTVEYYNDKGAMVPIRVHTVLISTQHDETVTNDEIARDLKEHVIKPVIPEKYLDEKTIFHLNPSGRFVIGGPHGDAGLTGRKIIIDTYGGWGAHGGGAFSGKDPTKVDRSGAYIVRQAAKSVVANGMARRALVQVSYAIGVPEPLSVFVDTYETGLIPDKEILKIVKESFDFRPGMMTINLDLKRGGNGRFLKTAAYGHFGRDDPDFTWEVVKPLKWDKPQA
Description: isothermal titration calorimetry. It is filed as binding.

Another experiment deals with T2, AtMAT2 (Arabidopsis thaliana, UniProt P17562).
T2 sequence (P17562 1-392): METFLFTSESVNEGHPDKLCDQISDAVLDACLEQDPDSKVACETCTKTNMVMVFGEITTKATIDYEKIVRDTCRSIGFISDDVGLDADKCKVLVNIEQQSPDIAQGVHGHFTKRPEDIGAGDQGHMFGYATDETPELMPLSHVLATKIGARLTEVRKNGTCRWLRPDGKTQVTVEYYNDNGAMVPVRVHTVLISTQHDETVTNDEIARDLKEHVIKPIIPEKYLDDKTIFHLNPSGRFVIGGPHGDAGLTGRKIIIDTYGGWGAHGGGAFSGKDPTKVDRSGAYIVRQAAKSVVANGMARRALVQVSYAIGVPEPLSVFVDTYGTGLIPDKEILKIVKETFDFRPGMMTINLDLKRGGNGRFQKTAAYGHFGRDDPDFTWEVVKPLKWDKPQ
The experiment in a line: X-ray crystal structure. The format is binding.

In general, Kd refers to the constant that tells how readily two partners part at equilibrium. The low end stands for tighter binding, the high end for weaker binding. `NCCCCNCCCN` [spermidine] showed an equilibrium dissociation constant (Kd) at AtMAT1 of 0.654 µM. This counts as sub-micromolar.

`Nc1ncnc2c1ncn2[C@@H]1O[C@H](COP(=O)(O)CP(=O)(O)OP(=O)(O)O)[C@@H](O)[C@H]1O` [AMPCPP]: the “X-ray crystal structure (2.00 Å, soaking)” value on AtMAT2 was “inside the catalytic site both, precatalytic Met and the ATP analogue, AMPCPP, revealed the exact pre-reaction state of the enzyme”.
